Entries after “also recorded” stand apart in the source; their conditions may differ.
Assays:
PREP in HEK-293 cells = molecular target: T1, PREP in HEK-293 cells (Homo sapiens, UniProt P48147); experiment: Cellular thermal shift assay (CETSA); assay type: cell-based; conditions: 10 μM, 1 h
T1 construct: endogenous in cells; host or cells: HEK-293 (ATCC)
T1 sequence (P48147 1-710): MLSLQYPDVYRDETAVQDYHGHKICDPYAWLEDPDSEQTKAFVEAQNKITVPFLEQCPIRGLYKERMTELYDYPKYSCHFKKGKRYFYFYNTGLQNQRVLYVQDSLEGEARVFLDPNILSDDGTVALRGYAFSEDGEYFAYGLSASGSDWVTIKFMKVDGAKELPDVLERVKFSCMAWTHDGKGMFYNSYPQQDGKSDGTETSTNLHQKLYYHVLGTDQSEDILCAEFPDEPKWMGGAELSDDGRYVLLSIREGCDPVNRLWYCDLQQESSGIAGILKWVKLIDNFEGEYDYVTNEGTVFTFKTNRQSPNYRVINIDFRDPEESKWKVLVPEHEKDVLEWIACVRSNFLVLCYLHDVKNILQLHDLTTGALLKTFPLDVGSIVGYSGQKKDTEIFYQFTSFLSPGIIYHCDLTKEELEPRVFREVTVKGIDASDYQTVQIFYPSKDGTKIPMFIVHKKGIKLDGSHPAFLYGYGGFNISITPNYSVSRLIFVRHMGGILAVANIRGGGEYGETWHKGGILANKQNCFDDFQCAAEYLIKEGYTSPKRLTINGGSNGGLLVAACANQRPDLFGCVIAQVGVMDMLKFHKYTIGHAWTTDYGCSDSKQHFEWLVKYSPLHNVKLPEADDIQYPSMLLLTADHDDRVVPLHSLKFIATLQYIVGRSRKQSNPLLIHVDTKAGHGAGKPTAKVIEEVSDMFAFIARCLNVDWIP
Experimental: CETSA was performed as previously described.[41] HEK-293 cells were seeded to T25 flasks with a density of 1 × 10^6 cells. […] After the exposure, the cells were collected in PBS and aliquoted into 7 PCR tubes (100,000 cells/tube). The cells were prewarmed at 37 °C for 3 min, then heated to 37, 47, 50, 53, 56, 63, or 67 °C for 3 min and subsequently cooled at 25 °C for 3 min using a PCR Mastercycler (T100 Thermal Cycler, Bio-Rad). After heating, the cells were disrupted with two freeze–thaw cycles by submerging the tubes into liquid nitrogen and subsequently thawed by incubation at 25 °C for 3 min. The aggregated proteins were removed by centrifugation (at 20,000g for 20 min at 4 °C), and the soluble fractions were diluted with Laemmli buffer (Bio-Rad, Hercules, CA) and analyzed with Western blot as described above. The nondenaturated protein fractions (%) were calculated by comparing the intensities of temperature-treated cell samples to the corresponding cell samples from 37 °C.

DPP4 = molecular target: T2, DPP4 (Homo sapiens, UniProt P27487); experiment: Close-relative enzyme specificity assay, DPP4; assay type: biochemical; conditions: 1 or 10 μM
T2 construct: DPPIV was purified from human seminal plasma; from tissue; host or cells: human seminal plasma
T2 sequence (P27487 whole entry): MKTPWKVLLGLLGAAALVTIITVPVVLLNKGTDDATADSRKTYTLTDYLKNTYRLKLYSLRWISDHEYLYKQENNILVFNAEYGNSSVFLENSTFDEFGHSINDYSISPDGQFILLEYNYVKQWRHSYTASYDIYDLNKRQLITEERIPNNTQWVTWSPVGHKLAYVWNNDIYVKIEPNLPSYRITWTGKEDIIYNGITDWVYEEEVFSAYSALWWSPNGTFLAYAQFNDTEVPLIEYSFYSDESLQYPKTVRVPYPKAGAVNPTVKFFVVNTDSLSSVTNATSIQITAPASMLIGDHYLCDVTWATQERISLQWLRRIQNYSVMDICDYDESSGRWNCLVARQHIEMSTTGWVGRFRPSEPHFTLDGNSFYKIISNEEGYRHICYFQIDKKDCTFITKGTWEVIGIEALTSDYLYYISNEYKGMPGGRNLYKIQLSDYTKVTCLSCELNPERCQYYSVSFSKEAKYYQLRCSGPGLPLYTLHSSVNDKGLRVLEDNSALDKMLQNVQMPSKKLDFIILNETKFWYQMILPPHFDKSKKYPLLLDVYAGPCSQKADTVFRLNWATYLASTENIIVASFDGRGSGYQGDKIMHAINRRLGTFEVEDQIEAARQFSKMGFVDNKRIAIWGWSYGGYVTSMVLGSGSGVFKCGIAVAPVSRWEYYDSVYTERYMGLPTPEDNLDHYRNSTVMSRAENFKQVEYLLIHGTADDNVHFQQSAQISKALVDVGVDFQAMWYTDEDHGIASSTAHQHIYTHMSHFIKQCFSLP
Experimental: DPP4: DPPIV was purified from human seminal plasma, as described previously.
DPP4 and DPP9: Ala-Pro-para-nitroanilide (pNA) was used as the substrate at the respective concentrations of 25 μM (DPP4) or 150 μM (DPP9) at pH 7.4 (0.05 M HEPES–NaOH buffer with 0.1% Tween-20, 0.1 mg/mL BSA, and 150 mM NaCl). […] Measurements were done on the Infinite 200 as above.

Recombinant human DPP2 = molecular target: T3, Recombinant human DPP2 (Homo sapiens, UniProt Q9UHL4); experiment: Close-relative enzyme specificity assay, DPP2; assay type: biochemical; conditions: 1 or 10 μM
T3 construct: purchased R&D Systems 3438-SE-010
Experimental: DPP2: Recombinant human DPP2 was purchased from R&D Systems (#3438-SE-010).
DPP2: Lys-Ala-pNA was used as the substrate at a concentration of 1 mM at pH 5.5 (100 mM NaAc, 10 mM EDTA, 14 μg/mL aprotinin). […] The substrate was added, and the velocities of pNA release were measured kinetically at 405 nm for at least 10 min at 37 °C. Measurements were done on the Infinite 200 as above.

[1] = tested on: αSyn dimerization in HEK-293 PREP-KO cells; experiment: αSyn-dimerization assay in PREP-KO cells; assay type: cell-based, human
[2] = tested on: pPP2Ac and PP2Ac in HEK-293 cells; experiment: PP2A marker assay (Western blot); assay type: cell-based, human; conditions: HEK-293, 10 μM
LC3BII in HEK-293 cells = experiment: Autophagy marker LC3BII assay (Western blot); assay type: cell-based, human; conditions: HEK-293, 10 μM
SH-SY5Y cells = experiment: Cell viability (MTT) in SH-SY5Y cells; assay type: cell-based, human; conditions: up to 100 μM, 24 h
Experimental: Toxicity testing of selected compounds
The impact of compounds on cell viability was assayed at the end of incubation period using a standard MTT assays as described earlier in Svarcbahs et al.11 and Myöhänen et al.12 HEK-293 and SH-SY5Y cells and mouse primary neurons were seeded onto 96-well plates (10,000 cells/well) and incubated overnight. Thereafter, the cells were incubated with 1, 10, and 100 µM of study compounds for 24 h (HEK-293 and SH-SY5Y cells) or 48 h (mouse primary neurons), followed by the measurement of mitochondrial […]
Figure S68. Selected oxazoles were tested for cell viability in an MTT assay after 24 h treatment in (A) HEK-293 cells and (B) SH-SY5Y cells and 48 h treatment in (C) mouse primary neurons. Even with the high […]
Data are presented as mean + […]
LC-MS detection of HUP-55 metabolites in the mouse brain
The same column and gradient was used with UPLC-HDMS analysis of the metabolites of HUP-55, as for the analysis of HUP-55 detailed in the experimental section of the article. The analyses were performed with ESI (+) resolution mode and the exact masses were analysed with UPLC-Synapt G2 QTOF/MS (Waters). The […]
Compound Retention time (min) m/z (M+H)+ Empirical formula

LC3BII in mouse brain = LC3BII in mouse brain (Western blot); assay type: in vivo; conditions: 10 mg/kg i.p., 45 min after injection
[3] = tested on: oligomeric αSyn in A30P*A53T transgenic mice; experiment: Oligomeric αSyn in A30P*A53T transgenic mice; assay type: in vivo, mouse; conditions: TG mice, 10 mg/kg i.p. every 12 h for 7 days, vs vehicle

Cc1nc(CCCc2ccccc2)oc1N1CCC[C@H]1C#N [HUP-55, (S)-1-(4-Methyl-2-(3-phenylpropyl)oxazol-5-yl)pyrrolidine-2-carbonitrile]
fitted mean aggregation temperature (PREP in HEK-293 cells): 53.19 °C
increase in the fitted mean aggregation temperature (PREP in HEK-293 cells; vs DMSO): 3.01 °C
inhibition of DPP4 (DPP4): no inhibition; also recorded: does not inhibit
inhibition of DPP2 (Recombinant human DPP2): no inhibition; also recorded: does not inhibit
effect on αSyn dimerization [1]: no effect on αSyn dimerization
pPP2Ac levels (in words) ([2]; 4 h): significant decrease in pPP2Ac levels
total PP2Ac levels (in words) ([2]; 4 h): elevated total PP2Ac levels
PP2Ac levels (in words) ([2]; 24 h): significantly elevated
LC3BII levels (in words) (LC3BII in HEK-293 cells; 4 h): significant increase in LC3BII levels
LC3BII levels (in words) (LC3BII in HEK-293 cells; 24 h): significantly elevated LC3BII levels
toxicity (cell viability) (SH-SY5Y cells): None of the compounds caused any toxicity
levels of LC3BII in mouse brain (in words) (LC3BII in mouse brain): significantly elevated
decrease of oligomeric αSyn in the SNpc ([3]; nonsignificant): 38%
decrease of oligomeric αSyn in the STR ([3]; not statistically significant): 47%
